Data as given in patent publication US11505579B2, “Methods of treatment and related compositions” (ASCEND BIOPHARMACEUTICALS LTD, priority 2020, dated 2022).

How the values were obtained:
B16F10 tumours = assay: Tumour growth and survival of B16F10 tumour-bearing mice (B16F10-e357 study); assay type: in vivo, mouse; details: for mice alive after day 12: culled at ethical end point
Experimental: The B16F10 murine colon carcinoma cell line was maintained in DMEM medium containing 10% fetal bovine serum, 2 mM glutamine, 100 units/mL sodium penicillin G, 25 μg/mL gentamicin, and 100 μg/mL streptomycin sulfate. The tumour cells were cultured in tissue culture flasks in a humidified incubator at 37° C., in an atmosphere of 5% CO2 and 95% air.
B16F10 cells were harvested during log phase growth and resuspended in PBS. Each mouse was injected subcutaneously in the right flank with 5×10^5 cells (in a 0.1 mL cell suspension). Tumours were calipered in two dimensions to monitor growth as their mean volume approached the desired 30 to 60 mm^3 range. Tumour size, in mm^3, was calculated from:
[formula] where w=width and l=length, in mm, of the tumour. Tumour weight can be estimated based on the assumption that 1 mg is equivalent to 1 mm^3 of tumour volume.
Eight days after tumour cell implantation, on Day 1 of the study, animals were sorted into eight groups (n=10 per group) according to tumour volume, with individual tumour volumes ranging from 32 to 63 mm^3 and group mean tumour volumes ranging from 41 to 42 mm^3. Tumour progression was monitored using caliper measurements three times weekly for the duration of the study.
Vismodegib and Ad5-mIFNg (stock concentration 3.3×10^12 viral particles/mL) were stored at −80° C. prior to formulation. On each day of dosing, Vismodegib was dissolved in vehicle 2 (75% PEG400:25% D5W (5% dextrose in water)) to obtain 5 mg/mL and 10 mg/mL dosing solutions which delivered a dose of 50 mg/kg and 100 mg/kg when administered in a volume of 10 mL/kg (0.2 mL per 20 g mouse), adjusted to the body weight of each animal.
On the first day of dosing, Ad5-mIFNg was thawed rapidly and diluted in vehicle 1 (1 M saccharose, 54 mg/L Tween® 80, 10 mM Tris, 1 mM MgCl2, 150 mM NaCl, pH 8) to obtain dosing solutions of 5×10^11 particles/mL and 2×10^11 particles/mL, which delivered 1×10^10 particles/animal when dosed in a fixed volume of 20 μL and 50 μL per animal, respectively.
On Day 1 of the study, female mice bearing established B16F10 tumours were sorted into eight groups (n=10 per group) and began dosing according to the treatment plan summarized in Table 2. Vehicle 1 and Ad5-mIFNg (1×10^10 particles per animal) were administered intratumourally (itu) in a fixed volume of either 20 μL or 50 μL; vehicle 2 and Vismodegib were administered orally (po) in a volume of 10 mL/kg (0.2 mL per 20 g mouse), adjusted to the body weight of each animal. The groups were as follow:
Group 1 served as the control group and received 20 μL vehicle 1 itu once a day (qd) for three days (qd×3) and vehicle 2 po qd×7.
Group 2 received 20 μL vehicle 1 itu qd×3 and 50 mg/kg vismodegib po qd×7.
Group 3 received 1×10^10 particles/animal Ad5-mIFNg in 20 μL itu qd×3 and vehicle 2.
Group 4 received 1×10^10 particles/animal Ad5-mIFNg 1 itu qd×3 and 50 mg/kg vismodegib 2 po qd×7.
Group 5 received 20 μL vehicle 1 itu once a week for a week (qwk×1) followed by 50 μL vehicle 1 itu qwk×1 (starting on Day 8) in addition to vehicle 2 po three times a week (tiwk) to Day 10.
Group 6 received 20 μL vehicle 1 itu once a week for a week (qwk×1) followed by 50 μL vehicle 1 itu qwk×1 (starting on Day 8) and 100 mg/kg Vismodegib in vehicle 2 po tiwk to Day 13. […]

[1] = test system: operable basal cell carcinoma; details: Vismodegib 150 mg daily over 12 weeks; Sofen et al. (2015); cited from earlier work

CS(=O)(=O)c1ccc(C(=O)Nc2ccc(Cl)c(-c3ccccn3)c2)c(Cl)c1 [Vismodegib]
tumour growth compared to the control vehicle treated groups (B16F10 tumours; G2: Vismodegib 50 mg/kg po qd×7, vehicle 1 itu qd×3): did not significantly reduce tumour growth | mice alive after day 12 (B16F10 tumours; G2: Vismodegib 50 mg/kg po qd×7): none | mice still alive on day 36 (number of mice) (B16F10 tumours; G2: Vismodegib only 50 mg/kg po qd×7, day 36): no mice | tumour growth compared to the control vehicle treated groups (B16F10 tumours; G6: Vismodegib 100 mg/kg po tiwk×3, vehicle 1 itu): did not significantly reduce tumour growth | mice alive after day 12 (B16F10 tumours; G6: Vismodegib 100 mg/kg po tiwk×3): none | loco-regional CHC [1]: 16%
